For 20 compounds, T/C results are on record in PubChem BioAssay AID206 (DTP/NCI, 2004).

Values joined by “and” are separate entries in the source; they are usually repeats but may differ in a detail not shown here. Equal entries are not always repeated. Inconclusive results are not listed. Starred links: 1 amine or outer side, 2 acyl side, 3 side chain; linkers in the order of their positions; H or OH if unused. Positions of bridges follow the written chain, without caps; N, C: chain ends. Non-standard residues stand in square brackets, D forms with d. Residues, ends and D or L forms follow the SMILES beside them. Chains are numbered I, II in the order given. Actinocin(9to1) = Cc1c2oc3c(C)ccc(C(=O)[*:1])c3nc-2c(C(=O)[*:2])c(N)c1=O; aThr = C[C@H](O)[C@H](N)C(=O)O; NMeV = CN[C@H](C(=O)O)C(C)C; Sar = CNCC(=O)O

The test system of this test is nude mice, HT29 intrarenal xenograft, tumor weight T/C. Kind of test: NCI In Vivo Anticancer Drug Screen. Data for tumor model HT29;CX-1 Human Adenocarcinoma (MER+) (intrarenal inoculation) in NU/NU Swiss (nude) mice. Conditions: endpoint: mean tumor weight change, higher = larger tumour. Summed up: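 Mice with transplanted tumors are dosed with compound while controls get vehicle only. Survival or tumor burden is then assessed per group, and the treated value is expressed relative to control.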

[1] abbreviates: dose: 200.0 mg/kg/injection, schedule: Q04DX004 (sc), vehicle: saline with Tween-80.
Where [2] appears, read: dose: 75.0 mg/kg/injection, schedule: Q04DX004 (sc), vehicle: Klucel (hydroxypropylcellulose) (HPC).
The mark [3] stands for this setting: dose: 300.0 mg/kg/injection, schedule: Q04DX004 (sc), vehicle: saline with Tween-80.
Setting [4] is: dose: 600.0 mg/kg/injection, schedule: Q04DX004 (sc), vehicle: saline with Tween-80.
Where [5] appears, read: dose: 37.5 mg/kg/injection, schedule: Q04DX004 (sc), vehicle: Klucel (hydroxypropylcellulose) (HPC).

As for `CN=C(N)N/N=C(\C)c1ccc2c(c1)Cc1cc(/C(C)=N/NC(N)=NC)ccc1-2`, the T/C (dose: 25.0 mg/kg/injection, schedule: Q04DX004 (sc), vehicle: saline with Tween-80) was 102 % of control; the T/C (dose: 50.0 mg/kg/injection, schedule: Q04DX004 (sc), vehicle: saline with Tween-80) was 53 % of control; the T/C (dose: 100.0 mg/kg/injection, schedule: Q04DX004 (sc), vehicle: saline with Tween-80) is 105 % of control; the T/C under setting [1] is 50 % of control.

With `O=C1C=C2C(=CCOC2O)O1` (stereo not drawn), the T/C was 53 % of control (dose: 2.0 mg/kg/injection, schedule: Q04DX004 (sc), vehicle: Klucel (hydroxypropylcellulose) (HPC)) and 87 % of control (dose: 4.0 mg/kg/injection, schedule: Q04DX004 (sc), vehicle: Klucel (hydroxypropylcellulose) (HPC)).

For the compound `COc1ccc(C(=O)c2no[n+]([O-])c2C(=O)c2ccc(OC)cc2)cc1`, the T/C reads like this: under setting [1], 182 % of control; (dose: 400.0 mg/kg/injection, schedule: Q04DX004 (sc), vehicle: saline with Tween-80) 117 % of control; (dose: 800.0 mg/kg/injection, schedule: Q04DX004 (sc), vehicle: saline with Tween-80) 71 % of control; (dose: 1600.0 mg/kg/injection, schedule: Q04DX004 (sc), vehicle: saline with Tween-80) 83 % of control.

Regarding `CCN(CC)CC[n+]1ccc2c(C)c3[nH]c4ccc(O)cc4c3c(C)c2c1`, the T/C reads like this: (dose: 12.5 mg/kg/injection, schedule: Q04DX004 (sc), vehicle: suspension in saline) 56 % of control; (dose: 25.0 mg/kg/injection, schedule: Q04DX004 (sc), vehicle: suspension in saline) 24 % of control.

Consider `CC1=CC(C)(C)Nc2ccc(CSc3ccccc3)cc21`, for which the T/C is, setting by setting: (dose: 75.0 mg/kg/injection, schedule: Q01DX010 (sc), vehicle: saline + Tween-80 + alcohol) 53 % of control; (dose: 150.0 mg/kg/injection, schedule: Q01DX010 (sc), vehicle: saline + Tween-80 + alcohol) 74 % of control; (dose: 300.0 mg/kg/injection, schedule: Q01DX010 (sc), vehicle: saline + Tween-80 + alcohol) 50 % of control; (dose: 600.0 mg/kg/injection, schedule: Q01DX010 (sc), vehicle: saline + Tween-80 + alcohol) 66 % of control.

Consider `CC(/C=N/N=C(N)N)=N\N=C(N)N`, for which the T/C (dose: 12.5 mg/kg/injection, schedule: Q01DX010 (sc), vehicle: water) was 67 % of control.

In the case of `CN(C)c1ccc2c(N(C)C)cc(N(C)C)nc2c1`, the T/C under setting [2] is 97 % of control.

For the compound `Cc1ccc2c(c1)C(=O)N(CC[P+](c1ccccc1)(c1ccccc1)c1ccccc1)C2=O`, the T/C reads like this: (dose: 3.13 mg/kg/injection, schedule: Q01DX010 (sc), vehicle: Klucel (hydroxypropylcellulose) (HPC)) 70 % of control; (dose: 6.25 mg/kg/injection, schedule: Q01DX010 (sc), vehicle: Klucel (hydroxypropylcellulose) (HPC)) 37 % of control; (dose: 12.5 mg/kg/injection, schedule: Q01DX010 (sc), vehicle: Klucel (hydroxypropylcellulose) (HPC)) 86 % of control; (dose: 25.0 mg/kg/injection, schedule: Q01DX010 (sc), vehicle: Klucel (hydroxypropylcellulose) (HPC)) 75 % of control.

Take `CCC(CC)COC(=O)c1ccccc1C(=O)OCC(CC)CC`: the T/C under setting [3] was 94 % of control; the T/C under setting [4] is 53 % of control; the T/C (dose: 1200.0 mg/kg/injection, schedule: Q04DX004 (sc), vehicle: saline with Tween-80) was 81 % of control; the T/C (dose: 2400.0 mg/kg/injection, schedule: Q04DX004 (sc), vehicle: saline with Tween-80) was 71 % of control.

As for `COc1ccc2[nH]c3c(c2c1)CCNC3CC(C)CCC=C(C)C` (stereo not drawn), the T/C under setting [5] is 47 % of control; the T/C (dose: 150.0 mg/kg/injection, schedule: Q04DX004 (sc), vehicle: Klucel (hydroxypropylcellulose) (HPC)) was 62 % of control; the T/C (dose: 300.0 mg/kg/injection, schedule: Q04DX004 (sc), vehicle: Klucel (hydroxypropylcellulose) (HPC)) was 55 % of control.

In the case of `Cc1cc(SCC(=O)c2ccc(Br)cc2)cc(C)[o+]1`, the T/C is 41 % of control (dose: 100.0 mg/kg/injection, schedule: Q01DX010 (sc), vehicle: saline) and 76 % of control (dose: 200.0 mg/kg/injection, schedule: Q01DX010 (sc), vehicle: saline).

Take `CN(C)c1ccc(C(=C2C=CC(=[N+](C)C)C=C2)c2ccc(N(C)C)cc2)cc1` (tested in a mixture with another compound): the T/C runs as follows: (dose: 1.25 mg/kg/injection, schedule: Q01DX010 (sc), vehicle: saline with Tween-80) 86 % of control; (dose: 2.5 mg/kg/injection, schedule: Q01DX010 (sc), vehicle: saline with Tween-80) 111 % of control; (dose: 5.0 mg/kg/injection, schedule: Q01DX010 (sc), vehicle: saline with Tween-80) 100 % of control; (dose: 10.0 mg/kg/injection, schedule: Q01DX010 (sc), vehicle: saline with Tween-80) 60 % of control.

Turning to `O=C[C@@H](CO)O[C@H](C=O)n1cnc2c(=O)[nH]cnc21`, the T/C runs as follows: (dose: 225.0 mg/kg/injection, schedule: Q04DX004 (sc), vehicle: saline) 76 % of control; (dose: 450.0 mg/kg/injection, schedule: Q04DX004 (sc), vehicle: saline) 86 % of control; (dose: 900.0 mg/kg/injection, schedule: Q04DX004 (sc), vehicle: saline) 93 % of control.

With `CCCCCCCCCCCCCCCCS(=O)CC(O)COC(=O)c1ccc(C(=O)OCC(O)CS(=O)CCCCCCCCCCCCCCCC)cc1` (stereo not drawn), the T/C was 114 % of control (dose: 50.0 mg/kg/injection, schedule: Q01DX010 (sc), vehicle: saline + Tween-80 + alcohol); 93 % of control and 110 % of control (dose: 400.0 mg/kg/injection, schedule: Q01DX010 (sc), vehicle: saline + Tween-80 + alcohol).

On to `Cc1c2oc3c(C)ccc(C(=O)N[C@@H]4C(=O)N[C@H](C(C)C)C(=O)N5CCC[C@H]5C(=O)N(C)CC(=O)N(C)[C@@H](C(C)C)C(=O)O[C@H]4C)c3nc-2c(C(=O)N[C@@H]2C(=O)N[C@H](C(C)C)C(=O)N3CCC[C@H]3C(=O)N(C)CC(=O)N(C)[C@@H](C(C)C)C(=O)O[C@H]2C)c(N)c1=O` (I: [aThr][dV]P[Sar][NMeV] / II: [aThr][dV]P[Sar][NMeV]; ester I:1-I:C, II:1-II:C; linker I:N-II:N via Actinocin(9to1)), for which, where the note is “dose: 25.0 micrograms/kg/injection, schedule: Q01DX010 (sc), vehicle: saline”, the T/C is 31 % of control.

Take `CC(=S)NC(O)C(=O)c1ccccc1` (stereo not drawn): the T/C under setting [3] was 116 % of control.

On to `COC1N(C2CC(O)C(CO)O2)C(=O)NC(=O)C1(F)Br` (stereo not drawn), for which, where the note is “dose: 25.0 mg/kg/injection, schedule: Q01DX010 (sc), vehicle: saline”, the T/C was 28 % of control.

Turning to `COc1cc2cc[n+](C)c(Cc3ccccc3)c2cc1OC`, the T/C was 73 % of control (dose: 18.75 mg/kg/injection, schedule: Q04DX004 (sc), vehicle: Klucel (hydroxypropylcellulose) (HPC)); 108 % of control under setting [5]; 54 % of control under setting [2].

`COC1/C=C\C=C(/C)C(=O)NC2=CC(=O)C=C(C2=O)C(OC)C(C)CC(OC)C(OC)C(C)/C=C(/C)C1OC(N)=O` (stereo not drawn): the T/C was 92 % of control and 95 % of control (dose: 2.25 mg/kg/injection, schedule: Q04DX004 (sc), vehicle: Klucel (hydroxypropylcellulose) (HPC)); 33 % of control (dose: 4.5 mg/kg/injection, schedule: Q04DX004 (sc), vehicle: Klucel (hydroxypropylcellulose) (HPC)); 4 % of control (dose: 9.0 mg/kg/injection, schedule: Q04DX004 (sc), vehicle: Klucel (hydroxypropylcellulose) (HPC)).

Take `CNc1cccnc1/C=N/NC(N)=S`: the T/C was 83 % of control (dose: 75.0 mg/kg/injection, schedule: Q04DX004 (sc), vehicle: saline with Tween-80); 110 % of control (dose: 150.0 mg/kg/injection, schedule: Q04DX004 (sc), vehicle: saline with Tween-80); 33 % of control under setting [3]; 58 % of control under setting [4].
